Laboratory results taken from patent US8017162B2, “Anti-inflammatory agent” (Oryza Oil & Fat Chemical Co., Ltd., priority 2005, dated 2011).

Assays:
NO production = conditions: concentration of 21.5 to 215 microgram/mL (FIG. 9); cited from earlier work
RAW264.7 cells [1] = test: PGE2 produced by LPS stimulation in RAW264.7 cells; type: cell-based, mouse; conditions: 0.1 microgram/mL, single substance, P<0.01 vs LPS group
Procedure: Suspend mouse-derived macrophage-like cells RAW264.7 in the culture medium “Minimum Essential Medium (MEM)” containing a 0.1 mM nonessential amino acid mixture, 10% fetal calf serum (FCS), penicillin (100 units/mL), and streptomycin (100 microgram/mL) in concentration of 1×10^6 cells/mL. Then, the cells were seeded into 48-well plate (200 microliter/well).
In 48 to 72 hours after the cultivation, vacuum the culture medium. Then clean the culture medium thrice with the serum-free culture medium (which contains no FCS). Then, add the serum-free culture medium (170 microliter) to each well.
After that, add the LPS solution (10 microlitre) which was prepared to 200 microgram/mL in the serum-free culture medium, to each well (final concentration 10 microgram/mL). Then, add the serum-free culture medium (10 microliter) to the well of the control group. Add 20 microliter each of the red ginger extract sample solution which was prepared to be the concentrations of […] in the serum-free culture medium, and add indomethacin in concentration of 8.9 microgram/mL (equivalent to 25 microM) to three wells, each. (The final concentrations of the red ginger extract are to be 0.1, 0.3, 1, 3, and 10 microgram/mL, and the final concentration of indomethacin is to be 0.89microgram/mL which is equivalent to 2.5 microM). […]

RAW264.7 cells [2] = test: NO production inhibition test (LPS, Griess Method); type: cell-based, mouse
Procedure: A 200 microliter each of the continuously-cultivated RAW264.7 cells (10^6 cells/mL) should be seeded into 48-well plate. After 24 hours, replace the culture medium with a serum-free culture medium. Then, add the LPS (final concentration: 10 microgram/mL) and samples (Examples 1 & 2), and then cultivate for 24 hours. Collect the supernatant (100 microliter) and determine the amount of NO by the Griess Method.

SMILES	Inhibitory effect on NO production (NO production)	Inhibition ratio of PGE2 production (RAW264.7 cells [1]) [%]	NO in supernatant (RAW264.7 cells [2]; 1 μg/mL, LPS 10 microgram/mL, 24 hours, average ± SD) [µM]	NO in supernatant (RAW264.7 cells [2]; 3 μg/mL) [µM]	NO in supernatant (RAW264.7 cells [2]; 10 μg/mL) [µM]	Inhibition ratio (NO production) (RAW264.7 cells [2]; 30 μg/mL)	NO in supernatant (RAW264.7 cells [2]; 30 μg/mL) [µM]	Inhibition ratio (NO production) (RAW264.7 cells [2]; 100 μg/mL)	NO in supernatant (RAW264.7 cells [2]; 100 μg/mL) [µM]
Cl.N[C@H]1C(O)O[C@H](CO)[C@@H](O)[C@@H]1O (stereo partly drawn) [glucosamine hydrochloride]	has the inhibitory effect on NO production	–	–	–	–	–	–	–	–
CCCCC[C@H](O)CC(=O)CCc1ccc(O)c(OC)c1 [Example 6-gingerol, 6-gingerol]	–	37.8	3.50 ± 0.26	3.66 ± 0.33	3.27 ± 0.26	(4.3) %	3.11 ± 0.22	(17.6) %	2.81 ± 0.47
